Columns and labels:
P2X purinoceptor 7 [1] = molecular target: T1, P2X purinoceptor 7 (Homo sapiens, UniProt Q99572); experiment: Competitive displacement of [11C]GSK1482160 from human recombinant P2X7 receptor expressed in HEK293 cell membranes incubated for 30 mins by scintillation counting method based radioligand competitive binding assay
T1 sequence (Q99572 whole entry): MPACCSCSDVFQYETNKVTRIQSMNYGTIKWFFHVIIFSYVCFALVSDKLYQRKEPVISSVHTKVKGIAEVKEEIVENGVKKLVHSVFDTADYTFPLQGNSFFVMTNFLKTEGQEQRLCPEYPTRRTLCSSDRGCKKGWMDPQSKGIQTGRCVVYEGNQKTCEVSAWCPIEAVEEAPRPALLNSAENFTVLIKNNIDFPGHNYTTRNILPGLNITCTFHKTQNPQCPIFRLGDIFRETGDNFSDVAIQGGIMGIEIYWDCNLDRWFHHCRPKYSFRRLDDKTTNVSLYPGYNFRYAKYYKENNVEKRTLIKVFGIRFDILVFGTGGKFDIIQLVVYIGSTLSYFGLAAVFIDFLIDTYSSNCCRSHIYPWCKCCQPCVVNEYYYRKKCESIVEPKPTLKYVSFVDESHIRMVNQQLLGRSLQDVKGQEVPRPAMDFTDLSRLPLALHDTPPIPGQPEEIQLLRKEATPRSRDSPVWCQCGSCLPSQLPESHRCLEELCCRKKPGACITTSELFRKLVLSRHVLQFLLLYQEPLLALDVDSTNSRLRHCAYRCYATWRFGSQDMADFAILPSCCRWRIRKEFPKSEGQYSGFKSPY

P2X purinoceptor 7 [2] = molecular target: T1, P2X purinoceptor 7; experiment: Displacement of [11C]GSK1482160 from human recombinant P2X7 receptor expressed in HEK293 cell membranes incubated for 30 mins by scintillation counting method based radioligand competitive binding assay

Structure (SMILES) | Ki (P2X purinoceptor 7 [1]) | IC50 (P2X purinoceptor 7 [2])
CN1C(=O)CC[C@H]1C(=O)NCc1cccc(C(F)(F)F)c1Cl [GSK1482160] | 3.1 nM | 
CN1C(=O)CC[C@H]1C(=O)NCc1cccc(C(F)(F)F)c1F | 54.2 nM | 153 nM
CN1C(=O)CC[C@H]1C(=O)NCc1cccc(C(F)(F)F)c1I | 1.9 nM | 5.3 nM
CN1C(=O)CC[C@H]1C(=O)NCc1cccc(C(F)(F)F)c1Br | 2.5 nM | 7.1 nM
